Test results published in ChEMBL document CHEMBL1129917, “Structure-based design of novel, dipeptide ligands targeting the pp60Src SH2 domain” (Bioorg Med Chem Lett, 1997).
pIC50: −log10 of the molar value.

Biological target: Proto-oncogene tyrosine-protein kinase Src (Homo sapiens, UniProt P12931)
Experiment: Inhibition of [125I]-labeled phosphopeptide binding to a Src protein tyrosine kinase SH2 domain.

Proto-oncogene tyrosine-protein kinase Src, sequence (P12931 2-536 limits assumed): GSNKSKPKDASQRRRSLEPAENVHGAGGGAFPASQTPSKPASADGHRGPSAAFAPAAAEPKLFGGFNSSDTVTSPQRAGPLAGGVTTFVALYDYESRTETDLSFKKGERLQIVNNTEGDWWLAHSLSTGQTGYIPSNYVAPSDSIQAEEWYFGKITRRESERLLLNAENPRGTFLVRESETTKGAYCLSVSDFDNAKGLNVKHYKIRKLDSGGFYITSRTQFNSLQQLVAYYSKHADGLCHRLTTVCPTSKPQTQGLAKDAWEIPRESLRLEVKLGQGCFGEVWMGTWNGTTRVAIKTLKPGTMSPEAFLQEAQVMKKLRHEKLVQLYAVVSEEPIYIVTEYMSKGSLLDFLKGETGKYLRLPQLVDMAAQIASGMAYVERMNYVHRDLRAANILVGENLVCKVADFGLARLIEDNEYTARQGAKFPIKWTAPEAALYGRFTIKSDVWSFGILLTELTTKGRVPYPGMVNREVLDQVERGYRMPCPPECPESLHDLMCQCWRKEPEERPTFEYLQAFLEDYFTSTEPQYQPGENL

SMILES: CC(=O)N[C@@H](Cc1ccc(OP(=O)(O)O)cc1)C(=O)N[C@@H](C)C(=O)NCCCc1ccccc1
- pIC50: 4.82

SMILES: CC(=O)N[C@@H](Cc1ccc(OP(=O)(O)O)cc1)C(=O)NCC(=O)NCCCc1ccccc1
- pIC50: ~4.34

SMILES: CC(=O)N[C@@H](Cc1ccc(OP(=O)(O)O)cc1)C(=O)N[C@@H](C)C(=O)N(CCCC(=O)O)CCCc1ccccc1
- pIC50: 5.19

SMILES: CC(=O)N[C@@H](Cc1ccc(OP(=O)(O)O)cc1)C(=O)N[C@@H](CCC(=O)O)C(=O)N(C)CCCc1ccccc1
- pIC50: 5.46

SMILES: CC(=O)N[C@@H](Cc1ccc(OP(=O)(O)O)cc1)C(=O)N[C@@H](CCC(=O)O)C(=O)N(CCCC(=O)O)CCCc1ccccc1
- pIC50: 5.70

SMILES: CCC[C@H](NC(=O)[C@H](Cc1ccc(OP(=O)(O)O)cc1)NC(C)=O)C(=O)NCCCc1ccccc1
- pIC50: 4.92

SMILES: CCc1ccccc1CCNC(=O)[C@H](CCC(=O)O)NC(=O)[C@H](Cc1ccc(OP(=O)(O)O)cc1)NC(C)=O
- pIC50: 5.34

SMILES: CC(=O)N[C@@H](Cc1ccc(OP(=O)(O)O)cc1)C(=O)N[C@@H](Cc1ccc(OP(=O)(O)O)cc1)C(=O)NCCCc1ccccc1
- pIC50: 5.41

SMILES: CCCC(NC(=O)[C@H](Cc1ccc(OP(=O)(O)O)cc1)NC(C)=O)C(=O)N(CCCC(=O)O)CCCc1ccccc1 (stereo partly specified)
- pIC50: 5.37

SMILES: CC(=O)N[C@@H](Cc1ccc(OP(=O)(O)O)cc1)C(=O)NCC(=O)N(CCCC(=O)O)CCCc1ccccc1
- pIC50: 4.85

SMILES: CC(=O)N[C@@H](Cc1ccc(OP(=O)(O)O)cc1)C(=O)N[C@@H](CCC(=O)O)C(=O)NCCC1=CC=CC2CCCCC12 (stereo partly specified)
- pIC50: 5.49

SMILES: CC(=O)N[C@@H](Cc1ccc(OP(=O)(O)O)cc1)C(=O)N[C@@H](Cc1ccc(OP(=O)(O)O)cc1)C(=O)N[C@@H](Cc1ccc(OP(=O)(O)O)cc1)C(N)=O
- pIC50: 6.62

SMILES: CC(=O)N[C@@H](Cc1ccc(OP(=O)(O)O)cc1)C(=O)N[C@H](C(=O)NCCCc1ccccc1)C(C)C
- pIC50: ~4.52

SMILES: CC(=O)N[C@@H](Cc1ccc(OP(=O)(O)O)cc1)C(=O)N[C@@H](CCC(=O)O)C(=O)N[C@@H](CCC(N)=O)Cc1cccc2ccccc12
- pIC50: 5.64

SMILES: CC(=O)N[C@@H](Cc1ccc(OP(=O)(O)O)cc1)C(=O)N[C@@H](CCC(=O)O)C(=O)NCCc1cccc2ccccc12
- pIC50: 5.32

SMILES: CC(=O)N[C@@H](Cc1ccc(OP(=O)(O)O)cc1)C(=O)N[C@@H](CCC(=O)O)C(=O)NCCc1ccccc1
- pIC50: 5.04
